The results in this text go back to patent publication US20260285875A1, “INHIBITORS OF PARG” (858 Therapeutics, Inc., priority 2023, published 2026).

The target in the experiment is T1, cellular PARG (Homo sapiens, UniProt Q86W56).
T1 construct: endogenous in cells; host or cells: HeLa
Briefly: Nuclear PAR accumulation assay (immunofluorescence high-content imaging, MMS-treated HeLa cells). The class given is cell-based. Particulars: 1 hour compound then MMS 50 μg/mL for an additional hour. In a few lines: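 HeLa cells pretreated with compound for 1 h at 37° C, then given 50 μg/mL MMS for another hour. After methanol fixation, PAR was immunostained with DAPI nuclear counterstain; per-nucleus intensity and percent PAR-positive cells were imaged at 20× (≥1,000 cells/well). IC50 from four-parameter logistic fit.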

T1 sequence (Q86W56 whole entry): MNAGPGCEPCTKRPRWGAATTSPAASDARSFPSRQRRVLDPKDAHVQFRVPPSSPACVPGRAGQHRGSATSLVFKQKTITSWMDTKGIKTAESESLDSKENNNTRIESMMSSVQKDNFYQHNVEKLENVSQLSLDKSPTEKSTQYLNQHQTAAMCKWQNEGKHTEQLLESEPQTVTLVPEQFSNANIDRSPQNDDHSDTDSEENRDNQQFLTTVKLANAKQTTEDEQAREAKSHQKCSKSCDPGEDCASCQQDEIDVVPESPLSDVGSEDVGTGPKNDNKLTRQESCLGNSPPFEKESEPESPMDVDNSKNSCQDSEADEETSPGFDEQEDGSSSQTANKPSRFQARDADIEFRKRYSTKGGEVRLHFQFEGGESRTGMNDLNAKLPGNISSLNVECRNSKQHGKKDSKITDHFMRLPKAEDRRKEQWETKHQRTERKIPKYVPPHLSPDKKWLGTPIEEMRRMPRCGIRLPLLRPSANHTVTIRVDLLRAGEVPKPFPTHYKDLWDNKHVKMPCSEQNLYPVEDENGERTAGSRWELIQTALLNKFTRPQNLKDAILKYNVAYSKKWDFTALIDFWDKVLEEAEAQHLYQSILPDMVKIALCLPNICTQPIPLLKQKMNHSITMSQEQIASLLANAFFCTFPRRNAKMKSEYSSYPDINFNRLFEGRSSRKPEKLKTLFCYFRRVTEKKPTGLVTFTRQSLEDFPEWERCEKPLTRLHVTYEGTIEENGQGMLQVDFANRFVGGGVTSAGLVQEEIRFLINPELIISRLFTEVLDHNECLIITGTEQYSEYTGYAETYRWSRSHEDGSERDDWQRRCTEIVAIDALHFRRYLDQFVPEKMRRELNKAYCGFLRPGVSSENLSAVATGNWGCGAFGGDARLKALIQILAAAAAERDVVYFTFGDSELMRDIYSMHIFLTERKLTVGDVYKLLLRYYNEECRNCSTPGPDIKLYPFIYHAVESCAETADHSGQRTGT

As a reminder, the IC50 is the midpoint of a concentration-inhibition curve. A higher IC50 goes with weaker potency. The compound `C[C@@H]1CN(c2cc(S(=O)(=O)NC3(C)CC3)cc3c2N2C(=NC[C@H]2C)N(C)C3=O)C[C@@H](C)O1` [Example 126, (R)-9-((2R,6R)-2,6-dimethylmorpholino)-1,4-dimethyl-N-(1-methylcyclopropyl)-5-oxo-1,2,4,5-tetrahydroimidazo[1,2-a]quinazoline-7-sulfonamide] gave an IC50 of 0.1 to 1 µM.

In turn, `CNC1(C#C[C@@H]2CN=C3N(Cc4cnn(C)c4)C(=O)c4cc(S(=O)(=O)NC5(C)CC5)ccc4N32)CC1` [Example 127, (R)-4-((1-methyl-1H-pyrazol-4-yl)methyl)-1-((1-(methylamino)cyclopropyl)ethynyl)-N-(1-methylcyclopropyl)-5-oxo-1,2,4,5-tetrahydroimidazo[1,2-a]quinazoline-7-sulfonamide] showed an IC50 below 0.1 µM.

The compound `Cn1cc(CN2C(=O)c3cc(S(=O)(=O)NC4(C)CC4)ccc3N3C2=NC[C@H]3CCC#N)cn1` [Example 128, (R)-1-(2-cyanoethyl)-4-((1-methyl-1H-pyrazol-4-yl)methyl)-N-(1-methylcyclopropyl)-5-oxo-1,2,4,5-tetrahydroimidazo[1,2-a]quinazoline-7-sulfonamide] yielded an IC50 of 0.1 to 1 µM.

`CN1C(=O)c2cc(S(=O)(=O)NC3(C)CC3)ccc2N2C1=NC[C@H]2C#CC1(N(C)C)CC1` [Example 129, (R)-1-((1-(dimethylamino)cyclopropyl)ethynyl)-4-methyl-N-(1-methylcyclopropyl)-5-oxo-1,2,4,5-tetrahydroimidazo[1,2-a]quinazoline-7-sulfonamide] displayed a half-inhibitory concentration (IC50) below 0.1 µM.

`CN1C(=O)c2cc(S(=O)(=O)NC3(C)CC3)ccc2N2C1=NC[C@H]2C#Cc1cnn(C)c1` [Example 130, (R)-4-methyl-1-((1-methyl-1H-pyrazol-4-yl)ethynyl)-N-(1-methylcyclopropyl)-5-oxo-1,2,4,5-tetrahydroimidazo[1,2-a]quinazoline-7-sulfonamide]: the IC50 was below 0.1 µM.

Compound `[2H]C([2H])(c1cnn(C)c1)N1C(=O)c2cc(S(=O)(=O)NC3(C)CC3)ccc2N2C1=NCC2CNc1ccccn1` (stereo not shown) [Example 131, 4-((1-methyl-1H-pyrazol-4-yl)methyl-d2)-N-(1-methylcyclopropyl)-5-oxo-1-((pyridin-2-ylamino)methyl)-1,2,4,5-tetrahydroimidazo[1,2-a]quinazoline-7-sulfonamide] came in with an IC50 of 1 to 10 µM.

The compound `Cn1cc(CN2C(=O)c3cc(S(=O)(=O)NC4(C)CC4)ccc3N3C2=NCC3C#Cc2ccncn2)cn1` (stereo not shown) [Example 132, 4-((1-methyl-1H-pyrazol-4-yl)methyl)-N-(1-methylcyclopropyl)-5-oxo-1-(pyrimidin-4-ylethynyl)-1,2,4,5-tetrahydroimidazo[1,2-a]quinazoline-7-sulfonamide] had an IC50 of 0.1 to 1 µM.

The compound `CN1C(=O)c2cc(S(=O)(=O)NC3(C)CC3)ccc2N2C1=NCC2C#Cc1ccc2cnn(C)c2c1` (stereo not shown) [Example 133, 4-methyl-1-((1-methyl-1H-indazol-6-yl)ethynyl)-N-(1-methylcyclopropyl)-5-oxo-1,2,4,5-tetrahydroimidazo[1,2-a]quinazoline-7-sulfonamide] came in with an IC50 below 0.1 µM.

In the case of `CN1C(=O)c2cc(S(=O)(=O)NC3(C)CC3)ccc2N2C1=NCC2C#Cc1cncc(C#N)c1` (stereo not shown) [Example 134, 1-((5-cyanopyridin-3-yl)ethynyl)-4-methyl-N-(1-methylcyclopropyl)-5-oxo-1,2,4,5-tetrahydroimidazo[1,2-a]quinazoline-7-sulfonamide], the IC50 was below 0.1 µM.

`Cn1cc(CN2C(=O)c3cc(S(=O)(=O)NC4(C)CC4)ccc3N3C2=NCC3COc2ccc(C#N)cc2)cn1` (stereo not shown) [Example 135, 1-((4-cyanophenoxy)methyl)-4-((1-methyl-1H-pyrazol-4-yl)methyl)-N-(1-methylcyclopropyl)-5-oxo-1,2,4,5-tetrahydroimidazo[1,2-a]quinazoline-7-sulfonamide] yielded an IC50 of 0.1 to 1 µM.

In the case of `Cn1cc(CN2C(=O)c3cc(S(=O)(=O)NC4(C)CC4)ccc3N3C2=NCC3COc2cccc(C#N)c2)cn1` (stereo not shown) [Example 136, 1-((3-cyanophenoxy)methyl)-4-((1-methyl-1H-pyrazol-4-yl)methyl)-N-(1-methylcyclopropyl)-5-oxo-1,2,4,5-tetrahydroimidazo[1,2-a]quinazoline-7-sulfonamide], the IC50 was below 0.1 µM.

Regarding `Cn1cc(CN2C(=O)c3cc(S(=O)(=O)NC4(C)CC4)ccc3N3C2=NCC3COc2ccccc2C#N)cn1` (stereo not shown) [Example 137, 1-((2-cyanophenoxy)methyl)-4-((1-methyl-1H-pyrazol-4-yl)methyl)-N-(1-methylcyclopropyl)-5-oxo-1,2,4,5-tetrahydroimidazo[1,2-a]quinazoline-7-sulfonamide], the IC50 fell in the range of 0.1 to 1 µM.

As for `Cn1cc(CN2C(=O)c3cc(S(=O)(=O)NC4(C)CC4)ccc3N3C2=NCC3COc2cccc(Cl)c2)cn1` (stereo not shown) [Example 138, 1-((3-chlorophenoxy)methyl)-4-((1-methyl-1H-pyrazol-4-yl)methyl)-N-(1-methylcyclopropyl)-5-oxo-1,2,4,5-tetrahydroimidazo[1,2-a]quinazoline-7-sulfonamide], the IC50 was in the range of 0.1 to 1 µM.

As to `C[C@@H]1CN=C2N(CC(F)F)C(=O)c3cc(S(=O)(=O)NC4(C)CC4)ccc3N21` [Example 139, (R)-4-(2,2-difluoroethyl)-1-methyl-N-(1-methylcyclopropyl)-5-oxo-1,2,4,5-tetrahydroimidazo[1,2-a]quinazoline-7-sulfonamide], the IC50 lay within 0.1 to 1 µM.

Compound `Cn1cc(CN2C(=O)c3cc(S(=O)(=O)NC4(C)CC4)ccc3N3C2=NC[C@H]3C#Cc2cnn(C)n2)cn1` [Example 140, (R)-4-((1-methyl-1H-pyrazol-4-yl)methyl)-1-((2-methyl-2H-1,2,3-triazol-4-yl)ethynyl)-N-(1-methylcyclopropyl)-5-oxo-1,2,4,5-tetrahydroimidazo[1,2-a]quinazoline-7-sulfonamide] returned an IC50 below 0.1 µM.

`Cn1cc(CN2C(=O)c3cc(S(=O)(=O)NC4(C)CC4)ccc3N3C2=NC[C@H]3COc2ccn(C)n2)cn1` [Example 141, (S)-1-(((1-methyl-1H-pyrazol-3-yl)oxy)methyl)-4-((1-methyl-1H-pyrazol-4-yl)methyl)-N-(1-methylcyclopropyl)-5-oxo-1,2,4,5-tetrahydroimidazo[1,2-a]quinazoline-7-sulfonamide]: the IC50 was 0.1 to 1 µM.

`CN1C(=O)c2cc(S(=O)(=O)NC3(C)CC3)ccc2N2C1=NC[C@H]2C#Cc1ccc2nn(C)cc2c1` [Example 142, (R)-4-methyl-1-((2-methyl-2H-indazol-5-yl)ethynyl)-N-(1-methylcyclopropyl)-5-oxo-1,2,4,5-tetrahydroimidazo[1,2-a]quinazoline-7-sulfonamide] showed an IC50 below 0.1 µM.

As for `Cn1cc(CN2C(=O)c3cc(S(=O)(=O)NC4(C)CC4)ccc3N3C2=NCC3COc2ccc(Cl)cc2)cn1` (stereo not shown) [Example 143, 1-((4-chlorophenoxy)methyl)-4-((1-methyl-1H-pyrazol-4-yl)methyl)-N-(1-methylcyclopropyl)-5-oxo-1,2,4,5-tetrahydroimidazo[1,2-a]quinazoline-7-sulfonamide], the IC50 lay in the range of 0.1 to 1 µM.

As to `Cn1cc(CN2C(=O)c3cc(S(=O)(=O)NC4(C)CC4)ccc3N3C2=NC[C@H]3c2ccccc2)cn1` [Example 144, (R)-4-((1-methyl-1H-pyrazol-4-yl)methyl)-N-(1-methylcyclopropyl)-5-oxo-1-phenyl-1,2,4,5-tetrahydroimidazo[1,2-a]quinazoline-7-sulfonamide], the half-maximal inhibitory concentration (IC50) is below 0.1 µM.

`Cn1cc(CN2C(=O)c3cc(S(=O)(=O)NC4(C)CC4)ccc3N3C2=N[C@H]2CCCC[C@H]23)cn1` [Example 145, (7aS,11aR)-6-((1-methyl-1H-pyrazol-4-yl)methyl)-N-(1-methylcyclopropyl)-5-oxo-5,6,7a,8,9,10,11,11a-octahydrobenzo[4,5]imidazo[1,2-a]quinazoline-3-sulfonamide] showed an IC50 below 0.1 µM.

On to `C[C@@H]1CN=C2N(Cc3cnn(C)c3)C(=O)c3cc(S(=O)(=O)NC4(C)CC4)cc(N4CC(C)(C#N)C4)c3N21` [Example 146, (R)-9-(3-cyano-3-methylazetidin-1-yl)-1-methyl-4-((1-methyl-1H-pyrazol-4-yl)methyl)-N-(1-methylcyclopropyl)-5-oxo-1,2,4,5-tetrahydroimidazo[1,2-a]quinazoline-7-sulfonamide], for which the half-inhibitory concentration (IC50) was in the range of 1 to 10 µM.

Turning to `CN1C(=O)c2cc(S(=O)(=O)NC3(C)CC3)ccc2N2C1=NC[C@H]2C#Cc1ccc2cn(C)nc2c1` [Example 147, (R)-4-methyl-1-((2-methyl-2H-indazol-6-yl)ethynyl)-N-(1-methylcyclopropyl)-5-oxo-1,2,4,5-tetrahydroimidazo[1,2-a]quinazoline-7-sulfonamide], the IC50 was below 0.1 µM.

`CN1C(=O)c2cc(S(=O)(=O)NC3(C)CC3)ccc2N2C1=NC[C@H]2C#Cc1ccc2c(cnn2C)c1` [Example 148, (R)-4-methyl-1-((1-methyl-1H-indazol-5-yl)ethynyl)-N-(1-methylcyclopropyl)-5-oxo-1,2,4,5-tetrahydroimidazo[1,2-a]quinazoline-7-sulfonamide] came in with an IC50 below 0.1 µM.

`CN1C(=O)c2cc(S(=O)(=O)NC3(C)CC3)ccc2N2C1=NC[C@H]2C#Cc1cnc2cccnn12` [Example 149, (R)-1-(imidazo[1,2-b]pyridazin-3-ylethynyl)-4-methyl-N-(1-methylcyclopropyl)-5-oxo-1,2,4,5-tetrahydroimidazo[1,2-a]quinazoline-7-sulfonamide] gave an IC50 below 0.1 µM.

`Cn1cc(CN2C(=O)c3cc(S(=O)(=O)NC4(C)CC4)ccc3N3C2=NCC3COc2ccon2)cn1` (stereo not shown) [Example 150, 1-((isoxazol-3-yloxy)methyl)-4-((1-methyl-1H-pyrazol-4-yl)methyl)-N-(1-methylcyclopropyl)-5-oxo-1,2,4,5-tetrahydroimidazo[1,2-a]quinazoline-7-sulfonamide] showed an IC50 below 0.1 µM.
